Test results reported in ChEMBL document CHEMBL1141727, “Isolation and cytotoxic evaluation of marine sponge-derived norterpene peroxides” (J Nat Prod, 1998).

How the values were obtained:
Type in all cases: functional
SK-MEL-2 = assay: Growth inhibition of human SK-MEL-2 cells
LOX IMVI = assay: Growth inhibition of human LOXIMVI cells
SNB-19 = assay: Growth inhibition of human SNB19 cells
NCI-H322M = assay: Growth inhibition of human NCI-H322M cells
IGROV-1 = assay: Growth inhibition of human IGROV1 cells
MDA-MB-435 = assay: Growth inhibition of human MDA-MB-435 cells
M14 = assay: Growth inhibition of human M14 cells
[1] = Growth inhibition of human MCF7/ADR resistant cells; settings: NCI/ADR-RES
HOP-92 = assay: Growth inhibition of human HOP92 cells
SK-MEL-28 = assay: Growth inhibition of human SK-MEL-28 cells
A549 = assay: Growth inhibition of human A549 cells
HCC 2998 = assay: Growth inhibition of human HCC2998 cells
HCT-116 = assay: Growth inhibition of human HCT116 cells
KM12 = assay: Growth inhibition of human KM12 cells
SF-295 = assay: Growth inhibition of human SF295 cells
NCI-H23 = assay: Growth inhibition of human NCI-H23 cells
MDA-MB-231 = assay: Growth inhibition of human MDA-MB-231 cells
NCI-H226 = assay: Growth inhibition of human NCI-H226 cells
DU-145 = assay: Growth inhibition of human DU145 cells
OVCAR-4 = assay: Growth inhibition of human OVCAR4 cells
SK-OV-3 = assay: Growth inhibition of human SKOV3 cells
SK-MEL-5 = assay: Growth inhibition of human SK-MEL-5 cells
786-0 = assay: Growth inhibition of human 786-0 cells
HT-29 = assay: Growth inhibition of human HT-29 cells
RXF 393 = assay: Growth inhibition of human […] cells
K562 = assay: Growth inhibition of human K562 cells
TK-10 = assay: Growth inhibition of human TK10 cells
COLO 205 = assay: Growth inhibition of human COLO205 cells
UO-31 = assay: Growth inhibition of human UO31 cells
NCI-H522 = assay: Growth inhibition of human NCI-H522 cells
HCT-15 = assay: Growth inhibition of human HCT15 cells
ACHN = assay: Growth inhibition of human ACHN cells
OVCAR-8 = assay: Growth inhibition of human OVCAR8 cells
MOLT-4 = assay: Growth inhibition of human MOLT4 cells
P388 = assay: Growth inhibition of mouse P388 cells assessed as zone units at 50 ug/disk by disk diffusion agar colony formation assay
CAKI-1 = assay: Growth inhibition of human Caki1 cells
U-251 = assay: Growth inhibition of human U251 cells
SF-539 = assay: Growth inhibition of human SF539 cells
SR = assay: Growth inhibition of human SR cells
PO3 = assay: Growth inhibition of mouse PO3 cells assessed as zone units at 50 ug/disk by disk diffusion agar colony formation assay
MCF7 = assay: Growth inhibition of human MCF7 cells
CCRF-CEM = assay: Growth inhibition of human CCRF-CEM cells
SW-620 = assay: Growth inhibition of human SW620 cells
[2] = Growth inhibition of human H125 cells assessed as zone units at 50 ug/disk by disk diffusion agar colony formation assay
UACC-257 = assay: Growth inhibition of human UACC257 cells
OVCAR-5 = assay: Growth inhibition of human OVCAR5 cells
EKVX = assay: Growth inhibition of human EKVX cells
UACC-62 = assay: Growth inhibition of human UACC62 cells
HOP-62 = assay: Growth inhibition of human HOP62 cells
L1210 = assay: Growth inhibition of mouse L1210 cells assessed as zone units at 50 ug/disk by disk diffusion agar colony formation assay
Malme-3M = assay: Growth inhibition of human MALME-3M cells
SNB-75 = assay: Growth inhibition of human SNB75 cells
A498 = assay: Growth inhibition of human A498 cells
OVCAR-3 = assay: Growth inhibition of human OVCAR-3 cells
HL-60(TB) = assay: Growth inhibition of human HL-60(TB) cells
[3] = Growth inhibition of human […] cells
T47D = assay: Growth inhibition of human T47D cells
NCI-H460 = assay: Growth inhibition of human NCI-H460 cells
MDA-N = assay: Growth inhibition of human MDA-N cells
SF-268 = assay: Growth inhibition of human SF268 cells
[4] = Growth inhibition of mouse M17/ADR cells assessed as zone units at 50 ug/disk by disk diffusion agar colony formation assay
[5] = Growth inhibition of human Hs 578T cells
BT-549 = assay: Growth inhibition of human BT549 cells
SN12C = assay: Growth inhibition of human SN12C cells
PC-3 = assay: Growth inhibition of human PC3 cells
MC-38 = assay: Growth inhibition of mouse C38 cells assessed as zone units at 50 ug/disk by disk diffusion agar colony formation assay

C=C1CCCC(C)(C)C1(O)CC/C(C)=C/CC[C@]1(C)CC[C@@H]([C@@H](C)C(=O)OC)OO1 (stereo partly specified) [MUQUBILIN B] gave a GI50 (SK-MEL-2) greater than 17.5 µM, a GI50 (LOX IMVI) of 5.22 µM and a GI50 (SNB-19) greater than 17.5 µM. It also gave a GI50 (NCI-H322M) greater than 17.5 µM, a GI50 (IGROV-1) of 2.42 µM and a GI50 (MDA-MB-435) greater than 17.5 µM. It also gave a GI50 (M14) greater than 17.5 µM, a GI50 [1] greater than 17.5 µM and a GI50 (HOP-92) greater than 17.5 µM. For the same molecule, the GI50 (SK-MEL-28) was greater than 17.5 µM, the GI50 (A549) was greater than 17.5 µM and the GI50 (HCC 2998) was greater than 17.5 µM. It also gave a GI50 (HCT-116) greater than 17.5 µM, a GI50 (KM12) greater than 17.5 µM and a GI50 (SF-295) greater than 17.5 µM. The GI50 (NCI-H23) was greater than 17.5 µM, the GI50 (MDA-MB-231) was greater than 17.5 µM and the GI50 (NCI-H226) was greater than 17.5 µM. It also gave a GI50 (DU-145) greater than 17.5 µM, a GI50 (OVCAR-4) greater than 17.5 µM and a GI50 (SK-OV-3) greater than 17.5 µM. The GI50 (SK-MEL-5) was greater than 17.5 µM, the GI50 (786-0) was greater than 17.5 µM and the GI50 (HT-29) was greater than 17.5 µM. The GI50 (RXF 393) was greater than 17.5 µM, the GI50 (K562) was greater than 17.5 µM and the GI50 (TK-10) was greater than 17.5 µM. For the same molecule, the GI50 (COLO 205) was greater than 17.5 µM, the GI50 (UO-31) was greater than 17.5 µM and the GI50 (NCI-H522) was 12.8 µM. It also gave a GI50 (HCT-15) greater than 17.5 µM, a GI50 (ACHN) greater than 17.5 µM and a GI50 (OVCAR-8) greater than 17.5 µM. The GI50 (MOLT-4) was greater than 17.5 µM, the Activity (P388) was 80 Zone units and the GI50 (CAKI-1) was greater than 17.5 µM. For the same molecule, the GI50 (U-251) was greater than 17.5 µM, the GI50 (SF-539) was greater than 17.5 µM and the GI50 (SR) was greater than 17.5 µM. The Activity (PO3) was 90 Zone units, the GI50 (MCF7) was greater than 17.5 µM and the GI50 (CCRF-CEM) was greater than 17.5 µM. It also gave a GI50 (SW-620) greater than 17.5 µM, an Activity [2] of 0 Zone units and a GI50 (UACC-257) greater than 17.5 µM. For the same molecule, the GI50 (OVCAR-5) was greater than 17.5 µM, the GI50 (EKVX) was greater than 17.5 µM and the GI50 (UACC-62) was greater than 17.5 µM. The GI50 (HOP-62) was greater than 17.5 µM, the Activity (L1210) was 80 Zone units and the GI50 (Malme-3M) was greater than 17.5 µM. It also gave a GI50 (SNB-75) of 15 µM, a GI50 (A498) greater than 17.5 µM and a GI50 (OVCAR-3) greater than 17.5 µM. The GI50 (HL-60(TB)) was greater than 17.5 µM and the GI50 [3] was greater than 17.5 µM.
Molecule C=C1CCCC(C)(C)C1CC[C@]1(C)CC[C@H]([C@@H](C)C(=O)OC)OO1 (stereo partly specified) [NUAPAPUIN B] has a GI50 (SK-MEL-2) of 8.28 µM, a GI50 (LOX IMVI) of 0.47 µM and a GI50 (T47D) of 2.94 µM. For the same molecule, the GI50 (SNB-19) was 5.47 µM, the GI50 (NCI-H322M) was 6.9 µM and the GI50 (NCI-H460) was 0.91 µM. The GI50 (IGROV-1) was 0.5 µM, the GI50 (MDA-MB-435) was 4.34 µM and the GI50 (MDA-N) was 3.54 µM. The GI50 (M14) was 6.43 µM, the GI50 [1] was 5.67 µM and the GI50 (HOP-92) was 0.76 µM. For the same molecule, the GI50 (SK-MEL-28) was 20.6 µM, the GI50 (A549) was 0.64 µM and the GI50 (HCC 2998) was 3.68 µM. It also gave a GI50 (HCT-116) of 8.14 µM, a GI50 (KM12) of 0.4 µM and a GI50 (SF-295) of 4.42 µM. It also gave a GI50 (NCI-H23) of 3.54 µM, a GI50 (MDA-MB-231) of 757 µM and a GI50 (NCI-H226) of 6.17 µM. The GI50 (DU-145) was 3.67 µM, the GI50 (OVCAR-4) was 4.01 µM and the GI50 (SK-OV-3) was 4.4 µM. The GI50 (SK-MEL-5) was 3.94 µM, the GI50 (786-0) was 0.27 µM and the GI50 (HT-29) was 0.38 µM. It also gave a GI50 (RXF 393) of 2.62 µM, a GI50 (K562) of 6.38 µM and a GI50 (TK-10) of 4.21 µM. For the same molecule, the GI50 (COLO 205) was 4.54 µM, the GI50 (UO-31) was 0.52 µM and the GI50 (NCI-H522) was 3.05 µM. The GI50 (SF-268) was 3.19 µM, the GI50 (HCT-15) was 13.1 µM and the GI50 (ACHN) was 0.48 µM. The GI50 (OVCAR-8) was 5.76 µM, the GI50 (MOLT-4) was 7.04 µM and the Activity (P388) was 180 Zone units. The GI50 (CAKI-1) was 0.32 µM, the GI50 (U-251) was 2.91 µM and the GI50 (SF-539) was 6.25 µM. It also gave a GI50 (SR) of 2.17 µM, a GI50 (MCF7) of 18.4 µM and a GI50 (CCRF-CEM) of 1.27 µM. The Activity [4] was 100 Zone units, the GI50 (SW-620) was 7.53 µM and the GI50 [5] was 4.6 µM. The GI50 (BT-549) was 4.95 µM, the Activity [2] was 200 Zone units and the GI50 (SN12C) was 3.73 µM. It also gave a GI50 (PC-3) of 3.63 µM, a GI50 (UACC-257) of 16.3 µM and a GI50 (OVCAR-5) of 4.76 µM. For the same molecule, the GI50 (EKVX) was 7.9 µM, the GI50 (UACC-62) was 4.13 µM and the GI50 (HOP-62) was 0.71 µM. It also gave an Activity (L1210) of 180 Zone units, a GI50 (Malme-3M) of 21 µM and an Activity (MC-38) of 300 Zone units. It also gave a GI50 (SNB-75) of 2.67 µM, a GI50 (A498) of 4.92 µM and a GI50 (OVCAR-3) of 21.8 µM. It also gave a GI50 (HL-60(TB)) of 1.6 µM and a GI50 [3] of 4.04 µM.
